Columns and labels:
[1] = test system: IL-1b; experiment: Mouse BMDM IL-1b Assay; assay type: cell-based; conditions: Macrophage, C57BL6 bone marrow derived macrophages, 200 ng/mL LPS 3 h, compound 30 min, 5 mM ATP 45 min, IL-1b ELISA of supernatant
Description: Mouse bone marrow cells from C57BL6 tibia and femur were culture in complete Isocov's Media supplemented with 20 ng/mL MCSF (BMDM media) at a density of 50 million cells/15 cm Petri dish. Fresh media was changed every 3 days, and bone marrow derived macrophages were collected, washed, and counted on day 7. Cells were seeded into 96 well plates at a density of 5×10^4 cells per well in 100 uL of BMDM media and cultured overnight. The cells were stimulated at 37° C. with 200 ng/mL Ultrapure LPS-B5 for 3 hours before pre-diluted compounds were added. 30 minutes after compound addition, 5 mM ATP was added for the secondary stimulation for 45 minutes. After stimulation, the plates were briefly spun down, and 50 uL of supernatant was harvested from each well. ELISA for mouse IL-1b was performed with 1:10 and 1:100 diluted supernatant using pre-coated kits. IL-1b concentrations were calculated based on pre-titrated standards, and compound inhibition IC50 is generated using the Levenberg Marquardt damped lease-square method.

[2] = test system: IL-1b; experiment: Human Whole Blood (HWB) IL-1b Assay; assay type: cell-based; conditions: compound 0.5 h, 100 ng/mL LPS 3.5 h, 5 mM ATP 45 min, IL-1b ELISA of supernatant
Description: Assay run as in Tran et al. “Whole blood assay as a model for in vitro evaluation of inflammasome activation and subsequent caspase-mediated interleukin-1 beta release” PLoSONE 14(4): e0214999.https://doi.org/10.1371/journal.pone.0214999. Namely, freshly drawn human whole blood with anti-coagulant was incubated with test compounds at various titration points for 0.5 hrs at 37° C. in 5% CO2. The cells were subsequently primed with 100 ng/mL LPS for 3.5 hours at 37° C. followed by stimulation with 5 mM ATP for an additional 45 minutes. The supernatant was harvested and analyzed for human IL-1b concentration using commercially available ELISA kits.

| Compound | IC50 [1] | IC50 [2] |
| --- | --- | --- |
| O=C(Nc1c2c(cc3c1CCC3)CCC2)NS(=O)(=O)c1cc2c(o1)C1CCN(CC1)C2 [Compound 13, sodium ((1,2,3,5,6,7-hexahydro-s-indacen-4-yl)carbamoyl)((4,6,7,8-tetrahydro-5,8-ethanofuro[3,2-c]azepin-2-yl)sulfonyl)amide] | < 100 nM | < 1000 nM |
| O=C(Nc1c2c(cc3c1CCC3)CCC2)NS(=O)(=O)c1cc2c(s1)C1CCN(CC1)C2 [Compound 25] | – | < 1000 nM |
| O=C(Nc1c2c(cc3c1CCC3)CCC2)NS(=O)(=O)c1cc2c(s1)C1CCN(CC1)C2 [Compound 26, sodium ((1,2,3,5,6,7-hexahydro-s-indacen-4-yl)carbamoyl)((4,6,7,8-tetrahydro-5,8-ethanothieno[3,2-c]azepin-2-yl)sulfonyl)amide] | < 100 nM | – |
| COc1cc(-c2ccc3c(c2NC(=O)NS(=O)(=O)c2cc4c(o2)C2CCN(CC2)C4)CCC3)ccn1 [Compound 27, N-((5-(2-methoxypyridin-4-yl)-2,3-dihydro-1H-inden-4-yl)carbamoyl)-4,6,7,8-tetrahydro-5,8-ethanofuro[3,2-c]azepine-2-sulfonamide] | – | < 1000 nM |
| COc1cc(-c2ccc3c(c2NC(=O)NS(=O)(=O)c2cc4c(s2)C2CCN(CC2)C4)CCC3)ccn1 [Compound 28, N-((5-(2-methoxypyridin-4-yl)-2,3-dihydro-1H-inden-4-yl)carbamoyl)-4,6,7,8-tetrahydro-5,8-ethanothieno[3,2-c]azepine-2-sulfonamide] | – | < 1000 nM |
| CC(C)c1ccc2c(c1NC(=O)NS(=O)(=O)c1cc3c(o1)C1CCN(CC1)C3)CCC2 [Compound 29, N-((5-isopropyl-2,3-dihydro-1H-inden-4-yl)carbamoyl)-4,6,7,8-tetrahydro-5,8-ethanofuro[3,2-c]azepine-2-sulfonamide] | – | < 1000 nM |
| CC(C)c1cc(F)c2c(c1NC(=O)NS(=O)(=O)c1cc3c(o1)C1CCN(CC1)C3)CCC2 [Compound 30, N-((7-fluoro-5-isopropyl-2,3-dihydro-1H-inden-4-yl)carbamoyl)-4,6,7,8-tetrahydro-5,8-ethanofuro[3,2-c]azepine-2-sulfonamide] | – | < 1000 nM |
| CC(C)c1ccc(F)c(C(C)C)c1NC(=O)NS(=O)(=O)c1cc2c(o1)C1CCN(CC1)C2 [Compound 31, N-((3-fluoro-2,6-diisopropylphenyl)carbamoyl)-4,6,7,8-tetrahydro-5,8-ethanofuro[3,2-c]azepine-2-sulfonamide] | – | < 1000 nM |
| O=C(Nc1c2c(c(F)c3c1CCC3)CCC2)NS(=O)(=O)c1cc2c(o1)C1CCN(CC1)C2 [Compound 32, N-((8-fluoro-1,2,3,5,6,7-hexahydro-s-indacen-4-yl)carbamoyl)-4,6,7,8-tetrahydro-5,8-ethanofuro[3,2-c]azepine-2-sulfonamide] | – | < 1000 nM |
| N#Cc1c2c(c(NC(=O)NS(=O)(=O)c3cc4c(o3)C3CCN(CC3)C4)c3c1CCC3)CCC2 [Compound 33, N-((8-cyano-1,2,3,5,6,7-hexahydro-s-indacen-4-yl)carbamoyl)-4,6,7,8-tetrahydro-5,8-ethanofuro[3,2-c]azepine-2-sulfonamide] | – | 1000 to 10000 nM |

Continued, values first:

| IC50 [1] | IC50 [2] | Compound |
| --- | --- | --- |
| – | 1000 to 10000 nM | CC(C)c1cc(F)cc(C(C)C)c1NC(=O)NS(=O)(=O)c1cc2c(o1)C1CCN(CC1)C2 [Compound 34, N-((4-fluoro-2,6-diisopropylphenyl)carbamoyl)-4,6,7,8-tetrahydro-5,8-ethanofuro[3,2-c]azepine-2-sulfonamide] |
| – | < 1000 nM | CC(C)c1c(F)c(Cl)c(F)c(C(C)C)c1NC(=O)NS(=O)(=O)c1cc2c(o1)C1CCN(CC1)C2 [Compound 35, N-((4-chloro-3,5-difluoro-2,6-diisopropylphenyl)carbamoyl)-4,6,7,8-tetrahydro-5,8-ethanofuro[3,2-c]azepine-2-sulfonamide] |
| – | 1000 to 10000 nM | CC(C)c1c(F)cc(F)c(C(C)C)c1NC(=O)NS(=O)(=O)c1cc2c(o1)C1CCN(CC1)C2 [Compound 36, N-((3,5-difluoro-2,6-diisopropylphenyl)carbamoyl)-4,6,7,8-tetrahydro-5,8-ethanofuro[3,2-c]azepine-2-sulfonamide] |
| – | 1000 to 10000 nM | O=C(Nc1c(C2CCOCC2)ccc2c1CCC2)NS(=O)(=O)c1cc2c(o1)C1CCN(CC1)C2 [Compound 37, N-((5-(tetrahydro-2H-pyran-4-yl)-2,3-dihydro-1H-inden-4-yl)carbamoyl)-4,6,7,8-tetrahydro-5,8-ethanofuro[3,2-c]azepine-2-sulfonamide] |
| – | < 1000 nM | O=C(Nc1c(C2CC2)ccc2c1CCC2)NS(=O)(=O)c1cc2c(o1)C1CCN(CC1)C2 [Compound 38, N-((5-cyclopropyl-2,3-dihydro-1H-inden-4-yl)carbamoyl)-4,6,7,8-tetrahydro-5,8-ethanofuro[3,2-c]azepine-2-sulfonamide] |
| – | 1000 to 10000 nM | O=C(Nc1c(C2CCCC2)ccc2c1CCC2)NS(=O)(=O)c1cc2c(o1)C1CCN(CC1)C2 [Compound 39, N-((5-cyclopentyl-2,3-dihydro-1H-inden-4-yl)carbamoyl)-4,6,7,8-tetrahydro-5,8-ethanofuro[3,2-c]azepine-2-sulfonamide] |
| – | < 1000 nM | O=C(Nc1c2c(cc3c1CCO3)CCC2)NS(=O)(=O)c1cc2c(o1)C1CCN(CC1)C2 [Compound 40, N-((3,5,6,7-tetrahydro-2H-indeno[5,6-b]furan-4-yl)carbamoyl)-4,6,7,8-tetrahydro-5,8-ethanofuro[3,2-c]azepine-2-sulfonamide] |
| – | < 1000 nM | O=C(Nc1c(C(F)(F)F)ccc2c1CCC2)NS(=O)(=O)c1cc2c(o1)C1CCN(CC1)C2 [Compound 41, N-((5-(trifluoromethyl)-2,3-dihydro-1H-inden-4-yl)carbamoyl)-4,6,7,8-tetrahydro-5,8-ethanofuro[3,2-c]azepine-2-sulfonamide] |
| – | 1000 to 10000 nM | O=C(Nc1c(C2CCC2)ccc2c1CCC2)NS(=O)(=O)c1cc2c(o1)C1CCN(CC1)C2 [Compound 42, N-((5-cyclobuty1-2,3-dihydro-1H-inden-4-yl)carbamoyl)-4,6,7,8-tetrahydro-5,8-ethanofuro[3,2-c]azepine-2-sulfonamide] |
| – | 1000 to 10000 nM | O=C(Nc1c(C2=CCC2)ccc2c1CCC2)NS(=O)(=O)c1cc2c(o1)C1CCN(CC1)C2 [Compound 43, N-((5-(cyclobut-1-en-1-yl)-2,3-dihydro-1H-inden-4-yl)carbamoyl)-4,6,7,8-tetrahydro-5,8-ethanofuro[3,2-c]azepine-2-sulfonamide] |
| – | 1000 to 10000 nM | CC#Cc1ccc2c(c1NC(=O)NS(=O)(=O)c1cc3c(o1)C1CCN(CC1)C3)CCC2 [Compound 44, N-((5-(prop-1-yn-1-yl)-2,3-dihydro-1H-inden-4-yl)carbamoyl)-4,6,7,8-tetrahydro-5,8-ethanofuro[3,2-c]azepine-2-sulfonamide] |
